Results as given in patent publication US20160159774A1 (Celgene Avilomics Research, Inc., priority 2014, published 2016).

What was measured:
[1] = target: T1, activated BTK enzyme (Homo sapiens, UniProt Q06187); test: Omnia assay for potency assessment against BTK; type: biochemical; conditions: BTK inhibition assay; [BTK]=5 nM, [ATP]=40 μM, [Y5-Sox]=10 μM
T1 construct: purchased Life Technologies PV3363
Method in brief: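 Activated BTK (5 nM) was pre-incubated 30 min at room temperature with compound, then reacted with 40 μM ATP (KMapp ~36 μM) and 10 μM Y5-Sox peptide in Tris pH 7.5/MgCl2/EGTA/DTT buffer. Sox fluorescence (ex360/em485) followed for 60 min; IC50 from initial velocities (~0–30 min) by variable-slope fit.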

[2] = target: T2, BTK in Ramos human Burkitt lymphoma cells (Homo sapiens, UniProt Q06187); test: BTK Ramos cellular assay (BTK occupancy); type: cell-based; conditions: concentration producing 50% occupancy of BTK, 1 hour incubation with compound
T2 construct: Compounds of this invention were assayed in Ramos human Burkitt lymphoma cells; endogenous in cells; host or cells: Ramos human Burkitt lymphoma cells
Method in brief: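 Ramos cells at 2×10^6 cells/mL in serum-free medium treated 1 hour with compound (500 to 0.7 nM final), then lysed. Free BTK captured by biotinylated covalent probe (1 μM final, 1 h) on streptavidin plate, detected by anti-Btk ELISA at OD 450 nm against recombinant Btk standard, normalized to total protein; value is concentration giving 50% occupancy.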

T1 sequence (Q06187 whole entry): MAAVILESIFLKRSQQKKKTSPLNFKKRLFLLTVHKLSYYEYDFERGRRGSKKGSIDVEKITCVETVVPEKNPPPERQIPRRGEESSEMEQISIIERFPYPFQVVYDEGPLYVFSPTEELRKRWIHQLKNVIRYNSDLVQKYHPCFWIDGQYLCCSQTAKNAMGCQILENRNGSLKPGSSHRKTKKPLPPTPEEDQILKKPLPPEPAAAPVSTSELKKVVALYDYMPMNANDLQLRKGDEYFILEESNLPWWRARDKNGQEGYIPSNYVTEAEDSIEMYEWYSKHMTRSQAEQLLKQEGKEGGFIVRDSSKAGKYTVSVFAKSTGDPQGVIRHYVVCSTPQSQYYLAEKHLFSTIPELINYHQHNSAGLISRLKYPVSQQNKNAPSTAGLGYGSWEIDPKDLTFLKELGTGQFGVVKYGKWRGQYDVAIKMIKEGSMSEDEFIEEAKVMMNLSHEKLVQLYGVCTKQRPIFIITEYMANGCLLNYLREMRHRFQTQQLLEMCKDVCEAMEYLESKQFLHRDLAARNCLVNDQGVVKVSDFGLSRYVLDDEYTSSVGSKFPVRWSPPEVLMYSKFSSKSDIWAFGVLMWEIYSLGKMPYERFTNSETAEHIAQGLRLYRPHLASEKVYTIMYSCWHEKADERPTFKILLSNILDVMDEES
T2 sequence (Q06187 whole entry): as above

SMILES	IC50 [1] [nM]	melting point [°C]	EC50 [2] [nM]
C=CC(=O)N1CCC[C@@H](Nc2nc(Nc3ccc4c(c3)CN(C(C)(C)C)CC4)ncc2F)C1 [Compound I-49, (R)-1-(3-(2-(2-tert-Butyl-1,2,3,4-tetrahydroisoquinolin-7-ylamino)-5-fluoropyrimidin-4-ylamino)piperidin-1-yl)prop-2-en-1-one]	< 10	118 to 121	10 to 100
C=CC(=O)N1CCC[C@@H](Nc2nc(Nc3ccc4c(c3)CN(C3CC3)CC4)ncc2F)C1 [Compound I-48, (R)-1-(3-(2-(2-Cyclopropyl-1,2,3,4-tetrahydroisoquinolin-7-ylamino)-5-fluoropyrimidin-4-ylamino)piperidin-1-yl)prop-2-en-1-one]	< 10	105 to 107	< 10
C=CC(=O)N1CCC[C@@H](Nc2nc(Nc3ccc4c(c3)CCN(C)CC4)ncc2F)C1 [Compound I-58, (R)-1-(3-(5-Fluoro-2-(3-methyl-2,3,4,5-tetrahydro-1H-benzo[d]azepin-7-ylamino)pyrimidin-4-ylamino)piperidin-1-yl)prop-2-en-1-one]	< 10	102 to 104	< 10

Second part, the compound after the results:

IC50 [1] [nM]	melting point [°C]	EC50 [2] [nM]	SMILES
< 10	120 to 122	10 to 100	C=CC(=O)N1CCC[C@@H](Nc2nc(Nc3ccc4c(c3)CN(C)C4=O)ncc2F)C1 [Compound I-61, (R)-5-(4-(1-Acryloylpiperidin-3-ylamino)-5-fluoropyrimidin-2-ylamino)-2-methylisoindolin-1-one]
< 10	104 to 106	< 10	C=CC(=O)N1CCC[C@@H](Nc2nc(Nc3ccc4c(c3)CCN(CC3COC3)CC4)ncc2F)C1 [Compound I-59, (R)-1-(3-(5-Fluoro-2-(3-(oxetan-3-ylmethyl)-2,3,4,5-tetrahydro-1H-benzo[d]azepin-7-ylamino)pyrimidin-4-ylamino)piperidin-1-yl)prop-2-en-1-one]
